N#Cc1ccccc1-c1ccc(CBr)cc1
solubility (mole fraction) (in acetone, 278.15 K): 0.0151 | solubility (mole fraction) (in acetone, 283.15 K): 0.0169 | solubility (mole fraction) (in acetone, 288.15 K): 0.0214 | solubility (mole fraction) (in acetone, 293.15 K): 0.0241 | solubility (mole fraction) (in acetone, 298.15 K): 0.0306 | solubility (mole fraction) (in acetone, 303.15 K): 0.0352 | solubility (mole fraction) (in acetone, 308.15 K): 0.0424 | solubility (mole fraction) (in acetone, 313.15 K): 0.0492 | solubility (mole fraction) (in n-propanol, 278.15 K): 0.00052 | solubility (mole fraction) (in n-propanol, 283.15 K): 0.00075 | solubility (mole fraction) (in n-propanol, 288.15 K): 0.00099 | solubility (mole fraction) (in n-propanol, 293.15 K): 0.00126 | solubility (mole fraction) (in n-propanol, 298.15 K): 0.00181 | solubility (mole fraction) (in n-propanol, 303.15 K): 0.00226 | solubility (mole fraction) (in n-propanol, 308.15 K): 0.0027 | solubility (mole fraction) (in n-propanol, 313.15 K): 0.00343

From BigSolDB 2.1
